According to PubChem BioAssay (NCI):
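Cultured in 96-well plates, cells were exposed to test compound for 48 hours across five concentrations. The concentration for full growth arrest is given as TGI.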

How the values were obtained:
Experiment in all cases: NCI anticancer screen, dose series, 48 h
NCI-H522 lung = test system: NCI-H522 lung
HL-60(TB) leukemia = test system: HL-60(TB) leukemia
SK-MEL-28 melanoma = test system: SK-MEL-28 melanoma
COLO 205 colon = test system: COLO 205 colon
SNB-19 CNS = test system: SNB-19 CNS
M14 melanoma = test system: M14 melanoma
UO-31 renal = test system: UO-31 renal
UACC-257 melanoma = test system: UACC-257 melanoma
SF-268 CNS = test system: SF-268 CNS
ACHN renal = test system: ACHN renal
A549 NSCLC = test system: A549 NSCLC
TK-10 renal = test system: TK-10 renal
NCI-H226 lung = test system: NCI-H226 lung
HOP-92 NSCLC = test system: HOP-92 NSCLC
HS 578T breast = test system: HS 578T breast
RPMI-8226 leukemia = test system: RPMI-8226 leukemia
OVCAR-8 ovarian = test system: OVCAR-8 ovarian
SR leukemia = test system: SR leukemia
SF-295 CNS = test system: SF-295 CNS
HCC-2998 colon = test system: HCC-2998 colon

| Structure (SMILES) | TGI (NCI-H522 lung) [µM] | TGI (HL-60(TB) leukemia) [µM] | TGI (SK-MEL-28 melanoma) [µM] | TGI (COLO 205 colon) [µM] | TGI (SNB-19 CNS) [µM] | TGI (M14 melanoma) [µM] | TGI (UO-31 renal) [µM] | TGI (UACC-257 melanoma) [µM] | TGI (SF-268 CNS) [µM] | TGI (ACHN renal) [µM] | TGI (A549 NSCLC) [µM] | TGI (TK-10 renal) [µM] | TGI (NCI-H226 lung) [µM] | TGI (HOP-92 NSCLC) [µM] | TGI (HS 578T breast) [µM] | TGI (RPMI-8226 leukemia) [µM] | TGI (OVCAR-8 ovarian) [µM] | TGI (SR leukemia) [µM] | TGI (SF-295 CNS) [µM] | TGI (HCC-2998 colon) [µM] |
| --- | --- | --- | --- | --- | --- | --- | --- | --- | --- | --- | --- | --- | --- | --- | --- | --- | --- | --- | --- | --- |
| CN(C)CCN(C(=Nc1ccccc1)N1CCCC1)c1ccccc1 | > 100 | > 100 | > 100 | > 100 | > 100 | > 100 | > 100 | > 100 | > 100 | > 100 | > 100 | > 100 | > 100 | > 100 | > 100 | 82.3 | > 100 | > 100 | > 100 | – |
| Cc1ccc(S(=O)(=O)NCCCSCCSCCCN)cc1 | > 100 | > 100 | > 100 | > 100 | > 100 | > 100 | > 100 | > 100 | > 100 | > 100 | > 100 | > 100 | > 100 | > 100 | > 100 | – | > 100 | > 100 | > 100 | > 100 |
| COc1cc(C(=O)Nc2cc(C(N)=O)cc(OC)c2OC)cc(NC(=O)/C=C/c2ccccc2)c1OC | > 100 | > 100 | > 100 | > 100 | > 100 | – | > 100 | > 100 | – | > 100 | > 100 | > 100 | – | > 100 | – | > 100 | > 100 | > 100 | > 100 | – |
| COC(=O)C1=C(C)N2CCOC2CC1c1ccccc1 (stereo unspecified) | – | > 100 | > 100 | > 100 | > 100 | > 100 | > 100 | > 100 | > 100 | > 100 | > 100 | > 100 | > 100 | > 100 | – | > 100 | > 100 | > 100 | > 100 | > 100 |
| CN1C(=O)C2C=C3CCCCC3=CC2N(C)C1=O (stereo unspecified) | > 100 | > 100 | > 100 | > 100 | > 100 | > 100 | > 100 | > 100 | > 100 | > 100 | > 100 | > 100 | > 100 | > 100 | > 100 | > 100 | > 100 | > 100 | > 100 | > 100 |
| O=C(N/N=C\C(F)(F)F)c1ccncc1 | – | > 100 | > 100 | > 100 | > 100 | > 100 | > 100 | > 100 | – | – | – | > 100 | > 100 | > 100 | > 100 | > 100 | > 100 | > 100 | > 100 | > 100 |
| COc1cc2oc(=O)ccc2cc1CC=C(C)C | > 100 | 33.1 | > 100 | > 100 | > 100 | – | 97.9 | > 100 | > 100 | > 100 | > 100 | 97.5 | 98.6 | 69 | > 100 | 61 | > 100 | 57.4 | > 100 | > 100 |
